Measured values taken from ChEMBL document CHEMBL1201862, “PubChem BioAssay data set” (2004).
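The compound was tested at five concentrations on cells cultured in 96-well plates, with a 48-hour exposure period. Abbreviation: GI50, concentration required for 50% inhibition of growth.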 Active and inactive are the calls of the source. Cut-off read from the data, not from the text of the source: active = GI50 up to about 1.1 µM and inactive = higher.

Assays:
Assay in all cases: growth of human tumour cells (NCI), 48 h
IGROV-1 = tested on: IGROV-1
HOP-62 = tested on: HOP-62
SN12C = tested on: SN12C
RPMI-8226 = tested on: RPMI-8226
SK-MEL-5 = tested on: SK-MEL-5
TK-10 = tested on: TK-10
CCRF-CEM = tested on: CCRF-CEM
UACC-62 = tested on: UACC-62
SK-MEL-2 = tested on: SK-MEL-2
HT-29 = tested on: HT-29
OVCAR-3 = tested on: OVCAR-3
UO-31 = tested on: UO-31
SF-539 = tested on: SF-539
MOLT-4 = tested on: MOLT-4
U-251 = tested on: U-251
SK-MEL-28 = tested on: SK-MEL-28
HOP-92 = tested on: HOP-92
UACC-257 = tested on: UACC-257
OVCAR-5 = tested on: OVCAR-5

Measured: GI50

CCOc1ccc(NC(=O)CC2C(=O)Nc3ccccc3[S+]2[O-])cc1 (stereo unspecified)
inactive: IGROV-1 > 90.6 µM | HOP-62 > 100 µM | SN12C > 71 µM | RPMI-8226 > 100 µM | SK-MEL-5 > 100 µM | TK-10 > 71.4 µM | CCRF-CEM > 100 µM | UACC-62 > 46.5 µM | SK-MEL-2 > 100 µM | HT-29 > 100 µM | OVCAR-3 > 59.7 µM | UO-31 > 52 µM | SF-539 > 67.8 µM | MOLT-4 > 100 µM | U-251 52.4 µM | SK-MEL-28 > 100 µM | HOP-92 23.4 µM | UACC-257 > 100 µM | OVCAR-5 > 100 µM

COc1c(OC2OC(CO)C(O)C(O)C2O)cc2c(c1OC)-c1ccc(OC)c(=O)cc1[C@@H](NC(C)=O)CC2 (stereo partly specified)
inactive: IGROV-1 83 µM | HOP-62 > 100 µM | SN12C > 91 µM | RPMI-8226 > 82.2 µM | SK-MEL-5 35.2 µM | TK-10 > 100 µM | CCRF-CEM 65.2 µM | UACC-62 51.5 µM | SK-MEL-2 35.1 µM | HT-29 > 100 µM | OVCAR-3 39.5 µM | UO-31 > 100 µM | SF-539 64.9 µM | MOLT-4 > 100 µM | U-251 > 100 µM | SK-MEL-28 59.4 µM | HOP-92 45.3 µM | UACC-257 > 84.5 µM | OVCAR-5 > 100 µM

O=[N+]([O-])c1cccc(S(=O)(=O)N/N=C/c2cc(I)cc([N+](=O)[O-])c2O)c1
inactive: IGROV-1 36.3 µM | HOP-62 26.7 µM | SN12C 24.2 µM | RPMI-8226 37 µM | SK-MEL-5 22.7 µM | TK-10 29.2 µM | CCRF-CEM 20.1 µM | UACC-62 22 µM | SK-MEL-2 19.7 µM | HT-29 26.7 µM | OVCAR-3 21.4 µM | UO-31 26.1 µM | SF-539 23.8 µM | MOLT-4 31.5 µM | U-251 20.9 µM | SK-MEL-28 27.7 µM | HOP-92 16.8 µM | UACC-257 25.2 µM | OVCAR-5 40.1 µM

Cc1ccccc1C(C#N)/C(=N/NC(=O)c1cc2ccccc2cc1O)C(=O)Nc1cccc(Cl)c1 (stereo unspecified)
inactive: IGROV-1 9.93 µM | HOP-62 27.5 µM | SN12C 35.6 µM | RPMI-8226 21.3 µM | SK-MEL-5 8.38 µM | TK-10 45.7 µM | CCRF-CEM 4.36 µM | UACC-62 4.27 µM | SK-MEL-2 22.5 µM | HT-29 42.1 µM | OVCAR-3 5.42 µM | UO-31 3.13 µM | SF-539 26.4 µM | MOLT-4 10.9 µM | U-251 25.6 µM | SK-MEL-28 25.1 µM | HOP-92 26.4 µM | UACC-257 20.7 µM | OVCAR-5 13.4 µM
